Measured values as given in patent publication US6610675B1 (priority 1980, dated 2003).

Tests used:
Type in all cases: in vivo, rat
[1] = system: ear swelling induced by croton oil; assay: Ear edema test; conditions: 1 mg/kg topical
Experimental: The test animals were Sprague/Dawley rats weighing approximately 150 grams each. In treatment groups, selected amounts of the test compound were dissolved in acetone containing 5% croton oil and 50 microliters of the solution were applied to the inner surface of the right ear of the rats. A control group was identically treated with vehicle only, i.e. 5% croton oil in acetone. Six hours after croton oil challenge, a constant region of each ear was removed by dissection under anesthesia. Then, 48 hours after steroid treatment, the animals were sacrificed and the thymi and adrenals were removed and weighed. The test results showing the inhibitory effect of topically applied steroids on the ear swelling induced by croton oil are summarized in Table II below.

[2] = system: granulation tissue formation caused by implantation of cotton pellets; assay: Granuloma formation test (local cotton pellet granuloma assay)
Experimental: The test compound was dissolved in acetone and aliquots of varying concentrations were injected into cotton pellets. The pellets were dried and then one pellet was implanted beneath the skin of each test rat. Six days later, the animals were sacrificed and the granulation tissue (granuloma) which formed in and around the implanted pellet was removed, dried and weighed. In addition, the thymi and adrenals were removed and weighed.

[3] = system: thymus weight in rats; assay: Thymus inhibition testing (subcutaneous administration); conditions: for Body weight gain / Thymus / Thymus Inhibition: Table VII, three days
In short: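 Male Sprague-Dawley rats were dosed systemically. On the fifth day, 48 hours after the last treatment, animals were sacrificed and thymus weights recorded.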

[4] = system: blank cotton pellet granuloma; assay: Blank cotton pellet granuloma assay (intravenous administration); conditions: 3 days
Experimental: A further test was undertaken to determine the thymolytic activity of a representative species of the invention as compared to betamethasone 17-valerate. In this test, the drugs were administered intravenously to rats, while using a blank cotton pellet granuloma assay. Male Sprague-Dawley rats, each weighing about 185 grams (166-196 grams), were used. Two cotton pellets, each weighing 30 mg and containing no test compounds, were sterilized and implanted sub-cutaneously into the back of each test animal. This day was considered day 0 of implantation. Test compounds suspended in 0.8% polysorbate 80 were administered intravenously once daily for 3 consecutive days beginning with day 1. On day 5, the animals were sacrificed and the two pellets, with their respective granulomas, were removed, dried overnight in an oven at 50° C. and weighed (dry granuloma weight). The thymi and final body weights were also recorded.
In the foregoing tests, there was determined the deactivation of the representative species of the present soft steroids administered intravenously to rats. […] The test compounds were administered intravenously to rats to check the test compounds also for systemic anti-inflammatory activity as compared to betamethasone 17-valerate. The test compounds were found lower in the inhibition of granulation tissue formation and also in the thymus involution activity than betamethasone 17-valerate. From the results of the tests, it is presumed that the compounds which will not be readily subjected to metabolism (deactivation) have a systemic anti-inflammatory activity, as is the case with betamethasone 17-valerate.

[5] = Table X, betamethasone 17-valerate = 1

## CCCCC(=O)O[C@]1(C(=O)CO)[C@@H](C)C[C@H]2[C@@H]3CCC4=CC(=O)C=C[C@]4(C)[C@@]3(F)[C@@H](O)C[C@@]21C [Betamethasone 17-valerate, reference compound]
[1]; 6 hr
  Ear Weight, % Increase: 10.9 ± 6.3 %
  Ear Weight, % Inhibition: 82.2%
  Ear Weight, Inflamed Ear: 55.4 ± 1.2 mg
  Ear Weight, Untreated Ear: 50.4 ± 2.0 mg
[1]; 48 hours
  Relative organ weight Adrenals: 18.9 ± 1.9 mg/100 g body wt.
  Relative organ weight Thymus: 267 ± 19 mg/100 g body wt.
[2]; Table III, 1 mg/pellet
  Body wt. gain: 16.6 ± 1.9 g
  Granulation tissue Dry wt.: 35.4 ± 7.3 mg/100 g body wt.
  Granulation tissue Inhibition: 19.0%
  Relative organ weight Adrenals: 15.5 ± 1.3 mg/100 g body wt.
  Relative organ weight Adrenals (Decrease %): (34.6) %
  Relative organ weight Thymus: 47 ± 2 mg/100 g body wt.
  Relative organ weight Thymus (Decrease %): (85.6) %
[2]; Table III, 3 mg/pellet
  Body wt. gain: 14.9 ± 1.7 g
  Granulation tissue Dry wt.: 31.6 ± 2.1 mg/100 g body wt.
  Granulation tissue Inhibition: 27.7%
  Relative organ weight Adrenals: 13.6 ± 0.9 mg/100 g body wt.
  Relative organ weight Adrenals (Decrease %): (42.6) %
  Relative organ weight Thymus: 38 ± 3 mg/100 g body wt.
  Relative organ weight Thymus (Decrease %): (88.3) %
[2]; Table III, 10 mg/pellet
  Body wt. gain: 17.0 ± 2.1 g
  Granulation tissue Dry wt.: 40.7 ± 2.6 mg/100 g body wt.
  Granulation tissue Inhibition: 6.9%
  Relative organ weight Adrenals: 12.6 ± 0.9 mg/100 g body wt.
  Relative organ weight Adrenals (Decrease %): (46.8) %
  Relative organ weight Thymus: 43 ± 4 mg/100 g body wt.
  Relative organ weight Thymus (Decrease %): (86.8) %
[2]; Table IV, 100 μg/pellet
  Body wt. gain: 24.9 ± 1.9 g
  Granulation tissue Dry wt.: 41.1 ± 2.7 mg
  Granulation tissue Dry wt. Inhibition: 49.4%
  Granulation tissue Wet wt.: 400 ± 19 mg
  Granulation tissue Wet wt. Inhibition: 29.3%
  Thymus wt.: 364 ± 24 mg
  Thymus wt. (Decrease %): (18.2) %
[2]; Table IV, 300 μg/pellet
  Body wt. gain: 22.3 ± 1.2 g
  Granulation tissue Dry wt.: 33.3 ± 3.6 mg
  Granulation tissue Dry wt. Inhibition: 59.0%
  Granulation tissue Wet wt.: 347 ± 15 mg
  Granulation tissue Wet wt. Inhibition: 38.7%
  Thymus wt.: 264 ± 29 mg
  Thymus wt. (Decrease %): (40.7) %
[2]; Table IV, 1000 μg/pellet
  Body wt. gain: 5.3 ± 1.0 g
  Granulation tissue Dry wt.: 38.1 ± 4.8 mg
  Granulation tissue Dry wt. Inhibition: 53.1%
  Granulation tissue Wet wt.: 363 ± 28 mg
  Granulation tissue Wet wt. Inhibition: 35.9%
  Thymus wt.: 77 ± 5 mg
  Thymus wt. (Decrease %): (82.7) %
[2]; Table IV, 3000 μg/pellet
  Body wt. gain: 6.6 ± 1.4 g
  Granulation tissue Dry wt.: 43.0 ± 4.1 mg
  Granulation tissue Dry wt. Inhibition: 47.0%
  Granulation tissue Wet wt.: 374 ± 15 mg
  Granulation tissue Wet wt. Inhibition: 33.9%
  Thymus wt.: 63 ± 3 mg
  Thymus wt. (Decrease %): (85.8) %
[2]; Table V-a, 10 μg/pellet
  Body wt. gain: 31.8 ± 1.6 g
  Granulation tissue Dry wt.: 38.5 ± 6.2 mg
  Granulation tissue Dry wt. Inhibition: 51.9%
  Granulation tissue Wet wt.: 375 ± 19 mg
  Granulation tissue Wet wt. Inhibition: 28.6%
  Thymus wt.: 479 ± 25 mg
  Thymus wt. (Decrease %): (3.2) %
[2]; Table V-a, 30 μg/pellet
  Body wt. gain: 30.8 ± 3.0 g
  Granulation tissue Dry wt.: 46.2 ± 7.4 mg
  Granulation tissue Dry wt. Inhibition: 42.3%
  Granulation tissue Wet wt.: 412 ± 42 mg
  Granulation tissue Wet wt. Inhibition: 21.5%
  Thymus wt.: 484 ± 23 mg
  Thymus wt. (Decrease %): (2.2) %
[2]; Table V-a, 100 μg/pellet
  Body wt. gain: 25.7 ± 1.2 g
  Granulation tissue Dry wt.: 41.0 ± 4.2 mg
  Granulation tissue Dry wt. Inhibition: 48.8%
  Granulation tissue Wet wt.: 419 ± 20 mg
  Granulation tissue Wet wt. Inhibition: 20.2%
  Thymus wt.: 378 ± 30 mg
  Thymus wt. (Decrease %): (23.6) %
[2]; Table XII, anti-inflammatory effect in cotton pellet granuloma
  ED50: 100 μg/pellet
[3]; 0.1 mg/kg/day s.c.
  Body weight gain: 15.5 ± 0.9 g
  Thymus: 362 ± 16 mg
  Thymus Inhibition: 23.1%
[3]; 0.3 mg/kg/day s.c.
  Body weight gain: 12.4 ± 0.9 g
  Thymus: 276 ± 11 mg
  Thymus Inhibition: 41.4%
[3]; 1 mg/kg/day s.c.
  Body weight gain: 13.0 ± 1.1 g
  Thymus: 200 ± 14 mg
  Thymus Inhibition: 57.5%
[3]; 3 mg/kg/day s.c.
  Body weight gain: 9.9 ± 1.3 g
  Thymus: 119 ± 7 mg
  Thymus Inhibition: 74.7%
[3]; [5]
  Relative Potency (TED40): 1
  Relative Potency (TED50): 1
[3]; Table X, dose required to achieve 40% inhibition of thymi weight, subcutaneous
  TED40: 0.30 mg
[3]; Table X, dose required to achieve 50% inhibition of thymi weight, subcutaneous
  TED50: 0.58 mg
[3]; Table XII, hydrocortisone 17-butyrate = 1
  Relative Potency (TED40): 4
[3]; Table XII, thymus inhibition effect, subcutaneously
  TED40: 0.3 mg/kg
[4]; 0.1 mg/kg/day i.v.
  Body wt. gain: 14.4 ± 1.6 g
  Dry granuloma wt.: 49.3 ± 3.9 mg
  Dry granuloma wt. Inhibition: 21.4%
  Thymus wt.: 305 ± 14 mg
  Thymus wt. Decrease: 27.7%
[4]; 0.3 mg/kg/day i.v.
  Body wt. gain: 12.2 ± 1.1 g
  Dry granuloma wt.: 44.4 ± 2.8 mg
  Dry granuloma wt. Inhibition: 29.2%
  Thymus wt.: 288 ± 27 mg
  Thymus wt. Decrease: 31.8%
[4]; 1 mg/kg/day i.v.
  Body wt. gain: 12.9 ± 1.1 g
  Dry granuloma wt.: 46.1 ± 4.3 mg
  Dry granuloma wt. Inhibition: 26.5%
  Thymus wt.: 233 ± 15 mg
  Thymus wt. Decrease: 44.8%
[4]; 3 mg/kg/day i.v.
  Body wt. gain: 13.0 ± 2.5 g
  Dry granuloma wt.: 47.3 ± 2.7 mg
  Dry granuloma wt. Inhibition: 24.6%
  Thymus wt.: 167 ± 22 mg
  Thymus wt. Decrease: 60.4%
